# From patent publication US10000496B2, “Compositions useful for treating disorders related to kit and PDGFR” (BLUEPRINT MEDICINES CORPORATION, priority 2015, dated 2018)
# Experiments:
# [1] = biological target: T1, Kit D816V in HMC1.2 cells (Homo sapiens, UniProt P10721, D816V/V560G); assay: HMC1.2 autophosphorylation assay (Kit autophosphorylation at tyrosine 719, AlphaLISA); assay type: cell-based; details: HMC1.2 mast cell leukemia cells (Kit V560G and D816V), phospho-Y719 c-Kit, 90 minutes; read-out: Cellular Activity IC50
# T1 construct: endogenous in cells; host or cells: HMC1.2
# Description: 10,000 HMC1.2 cells were incubated in 22 ul culture media (phenol-red free IMDM, no serum) in each well of a 384-well plate and serum starved overnight in a tissue culture incubator (5% CO2, 37° C.). A 10-point dose concentration series of compound (25 uM-95.4 pM) were then added to the cells in a volume of 3.1 ul to each well (0.25% DMSO final concentration). After 90 minutes, 6 ul of 5× AlphaLISA Lysis Buffer (Perkin Elmer) supplemented with a protease and phosphatase inhibitor cocktail (Cell Signaling Technologies) was added to each well and shaken at 450 rpm for 15 minutes at 4° C. 10 ul of phospho-Y719 c-Kit and total c-Kit antibodies (15 nM final concentration, Cell Signaling Technologies) and 50 ug/ml AlphaLISA rabbit acceptor beads (Perkin Elmer) were added to each well and shaken at 300 rpm at room temperature for 2 hours. 10 ul of 100 ug/ml streptavidin donor beads (Perkin Elmer) were added to each well, blocked from light with aluminum adhesive and shaken at 300 rpm at room temperature for 2 hours. Fluorescence signal was obtained on Envision (Perkin Elmer) by AlphaScreen 384 well HTS protocol. Data was normalized to 0% and 100% inhibition controls and the IC50 was calculated using Four Parameter Logistic IC50 curve fitting.
# This cell line contains Kit mutated at positions V560G and D816V resulting in constitutive activation of the kinase. The following compounds were tested in an assay to measure direct inhibition of Kit D816V kinase activity by assaying Kit autophosphorylation at tyrosine 719 on the Kit protein.
# [2] = biological target: T2, D816V Kit (Homo sapiens, UniProt P10721, D816V); assay: Kit D816V assay at Km (Caliper electrophoretic mobility shift); details: D816V Kit 0.5 nM, 15 uM ATP (Km), 1 uM Srctide, 25 C, 90 minutes; read-out: Biochemical Activity D816V IC50
# T2 construct: purchased Carna Bioscience 08-156
# Description: In order to assess the activity of chemical compounds against the relevant kinase of interest, the Caliper LifeSciences electrophoretic mobility shift technology platform is used. Fluorescently labeled substrate peptide is incubated in the presence of kinase and ATP so that a […] proportion of the peptide is phosphorylated. At the end of the reaction, the mix of phosphorylated (product) and non-phosphorylated (substrate) peptides are passed through the microfluidic system of the Caliper EZ Reader 2, under an applied potential difference. The presence of the phosphate group on the product peptide provides a difference in mass and charge between those of the substrate peptide, resulting in a separation of the substrate and product pools in the sample. As the pools pass a LEDS within the instrument, these pools are detected and resolved as separate peaks. The ratio between these peaks therefore reflects the activity of the chemical matter at that concentration in that well, under those conditions.
# Kit D816V assay at Km: In each well of a 384-well plate, 0.04 ng/ul (0.5 nM) of D816V Kit (Carna Bioscience 08-156) was incubated in a total of 12.5 ul of buffer (100 mM HEPES pH 7.5, 0.015% Brij 35, 10 mM MgCl2, 1 mM DTT) with 1 uM Srctide (5-FAM-GEEPLYWSFPAKKK-NH2) and 15 uM ATP at 25 C for 90 minutes in the presence or absence of a dosed concentration series of compound (1% DMSO final concentration). The reaction was stopped by the addition of 70 ul of Stop buffer (100 mM HEPES pH 7.5, 0.015% Brij 35, 35 mM EDTA and 0.2% of Coating Reagent 3 (Caliper Lifesciences)). The plate was then read on a Caliper EZReader 2 (protocol settings:—1.9 psi, upstream voltage—700, downstream voltage—3000, post sample sip 35s). Data was normalized to 0% and 100% inhibition controls and the IC50 or EC50 calculated using a 4-parameter fit using GraphPad Prism.
# T1 sequence (P10721 26-976 V560G/D816V): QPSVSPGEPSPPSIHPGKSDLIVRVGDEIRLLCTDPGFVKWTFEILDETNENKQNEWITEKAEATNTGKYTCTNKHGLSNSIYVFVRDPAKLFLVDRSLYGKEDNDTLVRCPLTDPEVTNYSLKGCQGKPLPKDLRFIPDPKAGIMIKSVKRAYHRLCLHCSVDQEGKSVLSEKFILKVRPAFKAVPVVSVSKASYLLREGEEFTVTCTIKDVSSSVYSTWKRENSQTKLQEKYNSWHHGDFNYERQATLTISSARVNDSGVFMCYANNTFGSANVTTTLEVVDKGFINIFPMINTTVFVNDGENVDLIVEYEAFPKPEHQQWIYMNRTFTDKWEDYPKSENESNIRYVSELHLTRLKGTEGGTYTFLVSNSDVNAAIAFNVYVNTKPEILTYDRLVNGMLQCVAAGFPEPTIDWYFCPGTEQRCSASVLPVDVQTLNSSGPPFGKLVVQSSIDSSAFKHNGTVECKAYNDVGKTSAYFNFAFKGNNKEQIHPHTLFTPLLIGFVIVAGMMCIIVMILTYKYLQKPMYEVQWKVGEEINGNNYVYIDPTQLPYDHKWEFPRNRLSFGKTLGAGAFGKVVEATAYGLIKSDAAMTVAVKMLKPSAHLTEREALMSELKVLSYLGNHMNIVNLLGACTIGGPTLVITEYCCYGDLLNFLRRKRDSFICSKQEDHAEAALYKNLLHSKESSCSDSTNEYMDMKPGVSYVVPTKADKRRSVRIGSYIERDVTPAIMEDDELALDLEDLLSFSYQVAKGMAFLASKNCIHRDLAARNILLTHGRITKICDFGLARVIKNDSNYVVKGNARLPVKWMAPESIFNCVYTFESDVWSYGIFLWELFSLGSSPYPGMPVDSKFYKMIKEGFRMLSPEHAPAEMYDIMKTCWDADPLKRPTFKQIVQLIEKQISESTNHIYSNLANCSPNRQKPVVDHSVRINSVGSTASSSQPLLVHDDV
# T2 sequence (P10721 26-976 D816V): as the sequence (P10721 26-976 V560G/D816V) above, with G535V counted along it
IC50 [1],IC50 [2],SMILES
10 to 100 nM,1.01 to 10 nM,CCC(C(=O)Nc1ccc(-c2ncnn3cc(-c4cnn(C)c4)cc23)cc1)c1ccc(Cl)cc1 (centres unmarked) [Compound 43]
< 10 nM,1.01 to 10 nM,"Cn1cc(-c2cc3c(-c4ccc(NC(=O)[C@](C)(N)c5ccc(Cl)cc5)cc4)ncnn3c2)cn1 [Compound 46, 2-amino-2-(4-chlorophenyl)-N-(4-(6-(1-methyl-1H-pyrazol-4-yl)pyrrolo[1,2-f][1,2,4]triazin-4-yl)phenyl)propanamide]"
100 to 1000 nM,10 to 100 nM,CC[C@H](C(=O)Nc1ccc(-c2ncnn3cc(-c4cnn(C)c4)cc23)cc1)c1ccc(Cl)cc1 [Compound 44]

# The remaining lines, values behind:
SMILES,IC50 [1],IC50 [2]
CS(=O)(=O)Nc1ccc(-c2ncnn3cc(-c4ccc(S(C)(=O)=O)cc4)cc23)cc1 [Compound 16],100 to 1000 nM,1.01 to 10 nM
Cn1cc(-c2cc3c(-c4ccc(NS(=O)(=O)c5ccc(Cl)cc5)cc4F)ncnn3c2)cn1 [Compound 56],100 to 1000 nM,1.01 to 10 nM
Cn1cc(-c2cc3c(-c4ccc(NS(=O)(=O)c5ccccc5)cc4)ncnn3c2)cn1 [Compound 13],100 to 1000 nM,1.01 to 10 nM
CC(C)(O)Cn1cc(-c2cc3c(-c4ccc(NC(=O)Cc5ccc(Cl)cc5)cc4)ncnn3c2)cn1 [Compound 60],10 to 100 nM,1.01 to 10 nM
